From US20180185374A1, “INHIBITORS OF MTOR KINASE AS ANTI-VIRAL AGENTS” (THE TRUSTEES OF PRINCETON UNIVERSITY, priority 2009, published 2018)
“Also recorded” adds a separate entry of the source.

Experiments:
HCMV [1] = experiment: 4-PBA reversibility: HCMV yield 8 days after drug removal, TCID50; assay type: cell-based, human cytomegalovirus; details: all doses tested; 8-day treatment; 16 days post infection
Procedure: (§1) FIG. 11. 4-PBA is not toxic to uninfected or infected confluent human fibroblasts. (A) Fibroblasts were maintained in medium containing the indicated concentrations of 4-PBA for 8 days. The medium was replaced every other day throughout the time course. At the end of the treatment period, cell viability was measured by the trypan blue exclusion assay. Date points represent the mean of duplicate wells. (B) Fibroblasts were infected with HCMV at a multiplicity of 0.1 pfu/cell. Cells were fed every other day with fresh medium containing the indicated concentration of 4-PBA. At eight days post infection, cells were washed once with media, and then media lacking drug was added. Eight days later (16 days post infection) cell free virus in the supernatant was quantitated by the TCID50 method. Date points represent the mean of duplicate wells.
(§2) Two experiments were performed to rule out the possibility that 4-PBA is simply toxic to the cells and inhibits HCMV indirectly by reducing cell viability (FIG. 11). In the first experiment (FIG. 11A) an assay for cell viability was performed on confluent human fibroblasts treated for eight days with different concentrations of the drug. […] Then the drug was removed and the yield of virus was determined 8 days later.

human fibroblasts = experiment: trypan blue exclusion viability of confluent human fibroblasts treated with 4-PBA; assay type: cell-based; details: 8 days; up to highest dose tested
Procedure: as §1, §2

HCMV strain AD169 = experiment: HCMV AD169 replication in human fibroblasts treated with 4-PBA, TCID50; assay type: cell-based, human cytomegalovirus; details: 0.1 pfu/cell; day 8 post infection; range of 4-PBA doses
Description: FIG. 10. 4-PBA inhibits HCMV replication in a dose-dependent manner. […] The medium with drug was replaced every other day. Cell-free and cell-associated virus was collected on day 8 post infection and titered by the TCID50 method. Data represent the log mean titer of duplicate samples.
To explore the hypothesis that HCMV might actually require the UPR to occur in order to maintain cellular homeostasis despite high levels of expression of viral glycoproteins, HCMV-infected human fibroblasts (HFFs) were treated with an inhibitor of the UPR, the chemical chaperone sodium 4-phenylbutyrate (4-PBA).

PI3Ks = details: cited from earlier work
mTOR = mTOR (Homo sapiens, UniProt P42345); details: read-out: IC50 of selective mTOR inhibitor; cited from earlier work
[2] = tested on: panel of 140 protein kinases; details: read-out: IC50 against panel of 140 protein kinases; cited from earlier work
HCMV [3] = experiment: HCMV multistep growth in serum-starved human fibroblasts, cell-free virus by TCID50; assay type: cell-based, human cytomegalovirus; details: day 10; 0.05 PFU/cell; rapamycin 20 nM, Torin1 250 nM
MCMV = MCMV replication in MEFs, cell-free virus by TCID50; assay type: cell-based, murine cytomegalovirus; details: wild-type MEFs; 0.05 PFU/cell; rapamycin 20 nM, Torin1 250 nM

With `O=C([O-])CCCc1ccccc1.[Na+]` [4-PBA, sodium 4-phenylbutyrate] the “virus yield 8 days after drug removal” value (HCMV [1]) was “recovered and produced a normal yield”, the “cellular viability / toxicity, trypan blue exclusion” value (human fibroblasts) was “no effect on cellular viability; also recorded: not toxic” and the “HCMV replication / virus production” value (HCMV strain AD169) was “effectively inhibited virus replication in a dose-dependent manner; also recorded: inhibited virus production in a dose-dependent manner”.

In the case of `O=C(Nc1ccc(-c2nc(N3CC4CCC(C3)O4)c3sccc3n2)cc1)NC1CC1` [Wyeth-BMCL-200910075-9b], the “fold selective versus PI3Ks (PI3K)” value (PI3Ks) is given as > 1,000 fold and the IC50 (mTOR) is given as 0.7 nM.

In the case of `CNC(=O)Nc1ccc(-c2nc(N3CC4CCC(C3)O4)c3cnn(C4CCC5(CC4)OCCO5)c3n2)cc1` [WYE-125132], the “fold selective versus PI3Ks (PI3K)” value (PI3Ks) is given as > 5,000 fold and the IC50 (mTOR) is given as 0.19 nM.

For `COC(=O)Nc1ccc(-c2nc(N3CCOCC3)c3cnn(C4CCN(C(=O)OC)CC4)c3n2)cc1` [WYE354], the IC50 (mTOR) is listed as 5 nM.

In the case of `Cc1c(C(=O)N2CCOc3ccc(-c4ccc(N)nc4)cc3C2)ccc(S(C)(=O)=O)c1F` [XL388], the IC50 [2] is listed as greater than 3000 nM.

With `CO[C@H]1C[C@@H]2CC[C@@H](C)[C@@](O)(O2)C(=O)C(=O)N2CCCC[C@H]2C(=O)O[C@H]([C@H](C)C[C@@H]2CC[C@@H](O)[C@H](OC)C2)CC(=O)[C@H](C)/C=C(\C)[C@@H](O)[C@@H](OC)C(=O)[C@H](C)C[C@H](C)/C=C/C=C/C=C/1C` [rapamycin] the “reduction of HCMV yield” value (HCMV [3]) was roughly 8 fold and the MCMV replication (MCMV) was “no inhibitory effect”.
